Laboratory results published in the supplement of paper PMC11451515.

Columns and labels:
Settings in all cases: 48 h
[1] = system: SEM cells; assay: AUC of viability dose-response curve (% viability x log10 dose units); higher = less sensitive
Outline: (§1)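 Leukemia cells adapted to each medium (500 or 1000 cells/well, 1536-well plates) were exposed to library compounds in DMSO for 48 h at 37°C at 11 threefold doses, 47 μM to 0.79 nM. Luminescence by CellTiter-Glo One was normalised per plate to DMSO and cell-free wells, then fitted with a four-parameter log-logistic curve on log10 dose. Curves above full viability were scaled and quality-control failures removed before area under the curve was integrated by trapezoidal rule.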

[2] = system: P12-Ichikawa; assay: as above
Outline: as §1

[3] = system: NOMO1; assay: as above
Outline: as §1

[4] = system: SEM cells; assay: cell viability relative to DMSO control; higher = less cytotoxic
Outline: (§2)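 Viability was expressed as a per-plate percentage of DMSO wells, with cell-free wells as background. Leukemia cells (NOMO1 or SEM at 500 cells/well, P12-Ichikawa at 1000 cells/well) were adapted for at least four passages in each medium and seeded in 1536-well plates (5 μl). Library compounds in DMSO were pin-dosed over an 11-point threefold series from 47 μM to 0.79 nM, and CellTiter-Glo One luminescence was read after 48 h at 37°C.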

[5] = system: P12-Ichikawa; assay: as above
Outline: as §2

[6] = system: NOMO1; assay: as above
Outline: as §2

[7] = RPMI 5 mM glucose + 10% dialyzed FBS
[8] = HPLM + 10% dialyzed FBS, 0.000781 µM
[9] = HPLM + 10% dialyzed FBS, 0.00234 µM
[10] = HPLM + 10% dialyzed FBS, 0.00702 µM
[11] = HPLM + 10% dialyzed FBS, 0.0211 µM
[12] = HPLM + 10% dialyzed FBS, 0.0632 µM
[13] = HPLM + 10% dialyzed FBS, 0.19 µM
[14] = HPLM + 10% dialyzed FBS, 0.569 µM
[15] = HPLM + 10% dialyzed FBS, 1.71 µM
[16] = HPLM + 10% dialyzed FBS, 5.12 µM
[17] = HPLM + 10% dialyzed FBS, 15.4 µM
[18] = HPLM + 10% dialyzed FBS, 46.1 µM
[19] = RPMI 5 mM glucose + 10% FBS, 0.000781 µM
[20] = RPMI 5 mM glucose + 10% FBS, 0.00234 µM
[21] = RPMI 5 mM glucose + 10% FBS, 0.00702 µM
[22] = RPMI 5 mM glucose + 10% FBS, 0.0211 µM
[23] = RPMI 5 mM glucose + 10% FBS, 0.0632 µM
[24] = RPMI 5 mM glucose + 10% FBS, 0.19 µM
[25] = RPMI 5 mM glucose + 10% FBS, 0.569 µM
[26] = RPMI 5 mM glucose + 10% FBS, 1.71 µM
[27] = RPMI 5 mM glucose + 10% FBS, 5.12 µM
[28] = RPMI 5 mM glucose + 10% FBS, 15.4 µM
[29] = RPMI 5 mM glucose + 10% FBS, 46.1 µM
[30] = RPMI 5 mM glucose + 10% dialyzed FBS, 0.000781 µM
[31] = RPMI 5 mM glucose + 10% dialyzed FBS, 0.00234 µM
[32] = RPMI 5 mM glucose + 10% dialyzed FBS, 0.00702 µM
[33] = RPMI 5 mM glucose + 10% dialyzed FBS, 0.0211 µM
[34] = RPMI 5 mM glucose + 10% dialyzed FBS, 0.0632 µM
[35] = RPMI 5 mM glucose + 10% dialyzed FBS, 0.19 µM
[36] = RPMI 5 mM glucose + 10% dialyzed FBS, 0.569 µM
[37] = RPMI 5 mM glucose + 10% dialyzed FBS, 1.71 µM
[38] = RPMI 5 mM glucose + 10% dialyzed FBS, 5.12 µM
[39] = RPMI 5 mM glucose + 10% dialyzed FBS, 15.4 µM
[40] = RPMI 5 mM glucose + 10% dialyzed FBS, 46.1 µM

O=C(NC1CCOCC1)c1ccc(-c2cc(-c3c[nH]nc3-c3ccccn3)ccn2)cc1 was tested, and the “AUC of viability dose-response curve” value ([1]; HPLM + 10% dialyzed FBS) was 464, the “AUC of viability dose-response curve” value ([1]; RPMI 5 mM glucose + 10% FBS) was 474 and the “AUC of viability dose-response curve” value [1, 7] was 453. The “AUC of viability dose-response curve” value ([2]; HPLM + 10% dialyzed FBS) was 463, the “AUC of viability dose-response curve” value ([2]; RPMI 5 mM glucose + 10% FBS) was 448 and the “AUC of viability dose-response curve” value [2, 7] was 435. The “AUC of viability dose-response curve” value ([3]; HPLM + 10% dialyzed FBS) was 458, the “AUC of viability dose-response curve” value ([3]; RPMI 5 mM glucose + 10% FBS) was 465 and the “AUC of viability dose-response curve” value [3, 7] was 466. For the same molecule, the cell viability [4, 8] was 106%, the cell viability [4, 9] was 108% and the cell viability [4, 10] was 108%. It also gave a cell viability [4, 11] of 115%, a cell viability [4, 12] of 117% and a cell viability [4, 13] of 120%. It also gave a cell viability [4, 14] of 114%, a cell viability [4, 15] of 112% and a cell viability [4, 16] of 105%. For the same molecule, the cell viability [4, 17] was 120%, the cell viability [4, 18] was 114% and the cell viability [4, 19] was 124%. The cell viability [4, 20] was 116%, the cell viability [4, 21] was 124% and the cell viability [4, 22] was 121%. It also gave a cell viability [4, 23] of 118%, a cell viability [4, 24] of 132% and a cell viability [4, 25] of 104%. The cell viability [4, 26] was 120%, the cell viability [4, 27] was 118% and the cell viability [4, 28] was 122%. For the same molecule, the cell viability [4, 29] was 122%, the cell viability [4, 30] was 98.7% and the cell viability [4, 31] was 108%. It also gave a cell viability [4, 32] of 110%, a cell viability [4, 33] of 111% and a cell viability [4, 34] of 104%. The cell viability [4, 35] was 105%, the cell viability [4, 36] was 106% and the cell viability [4, 37] was 104%. The cell viability [4, 38] was 113%, the cell viability [4, 39] was 110% and the cell viability [4, 40] was 123%. The cell viability [5, 8] was 104%, the cell viability [5, 9] was 103% and the cell viability [5, 10] was 110%. For the same molecule, the cell viability [5, 11] was 104%, the cell viability [5, 12] was 111% and the cell viability [5, 13] was 108%. The cell viability [5, 14] was 109%, the cell viability [5, 15] was 96.6% and the cell viability [5, 16] was 98.3%. The cell viability [5, 17] was 92.4%, the cell viability [5, 18] was 104% and the cell viability [5, 19] was 104%. It also gave a cell viability [5, 20] of 109%, a cell viability [5, 21] of 110% and a cell viability [5, 22] of 109%. The cell viability [5, 23] was 109%, the cell viability [5, 24] was 94.1% and the cell viability [5, 25] was 98.4%. For the same molecule, the cell viability [5, 26] was 85.7%, the cell viability [5, 27] was 99.9% and the cell viability [5, 28] was 97.8%. For the same molecule, the cell viability [5, 29] was 99.9%, the cell viability [5, 30] was 114% and the cell viability [5, 31] was 109%. The cell viability [5, 32] was 103%, the cell viability [5, 33] was 105% and the cell viability [5, 34] was 103%. The cell viability [5, 35] was 102%, the cell viability [5, 36] was 96% and the cell viability [5, 37] was 105%. For the same molecule, the cell viability [5, 38] was 88.4%, the cell viability [5, 39] was 97.5% and the cell viability [5, 40] was 89.8%. For the same molecule, the cell viability [6, 8] was 125%, the cell viability [6, 9] was 99.7% and the cell viability [6, 10] was 110%. For the same molecule, the cell viability [6, 11] was 93.6%, the cell viability [6, 12] was 120% and the cell viability [6, 13] was 107%. For the same molecule, the cell viability [6, 14] was 114%, the cell viability [6, 15] was 101% and the cell viability [6, 16] was 87.5%. The cell viability [6, 17] was 110%, the cell viability [6, 18] was 108% and the cell viability [6, 19] was 99.4%. For the same molecule, the cell viability [6, 20] was 97.6%, the cell viability [6, 21] was 102% and the cell viability [6, 22] was 98.8%. The cell viability [6, 23] was 99.7%, the cell viability [6, 24] was 104% and the cell viability [6, 25] was 93.2%. The cell viability [6, 26] was 87.3%, the cell viability [6, 27] was 93.1% and the cell viability [6, 28] was 104%. For the same molecule, the cell viability [6, 29] was 93.8%, the cell viability [6, 30] was 106% and the cell viability [6, 31] was 94.9%. It also gave a cell viability [6, 32] of 99.6%, a cell viability [6, 33] of 91.1% and a cell viability [6, 34] of 104%. For the same molecule, the cell viability [6, 35] was 92.4%, the cell viability [6, 36] was 95.3% and the cell viability [6, 37] was 104%. The cell viability [6, 38] was 96.7%, the cell viability [6, 39] was 97.8% and the cell viability [6, 40] was 93%.
With O=C(Nc1ccc(OC(F)(F)F)cc1)c1sccc1NCc1ccnc2ccccc12 the “AUC of viability dose-response curve” value ([1]; HPLM + 10% dialyzed FBS) was 373, the “AUC of viability dose-response curve” value ([1]; RPMI 5 mM glucose + 10% FBS) was 359 and the “AUC of viability dose-response curve” value [1, 7] was 395. The “AUC of viability dose-response curve” value ([2]; HPLM + 10% dialyzed FBS) was 295, the “AUC of viability dose-response curve” value ([2]; RPMI 5 mM glucose + 10% FBS) was 351 and the “AUC of viability dose-response curve” value [2, 7] was 363. For the same molecule, the “AUC of viability dose-response curve” value ([3]; HPLM + 10% dialyzed FBS) was 346, the “AUC of viability dose-response curve” value ([3]; RPMI 5 mM glucose + 10% FBS) was 388 and the “AUC of viability dose-response curve” value [3, 7] was 395. The cell viability [4, 8] was 115%, the cell viability [4, 9] was 115% and the cell viability [4, 10] was 114%. For the same molecule, the cell viability [4, 11] was 127%, the cell viability [4, 12] was 125% and the cell viability [4, 13] was 115%. It also gave a cell viability [4, 14] of 122%, a cell viability [4, 15] of 82.3% and a cell viability [4, 16] of 47.6%. The cell viability [4, 17] was 24.8%, the cell viability [4, 18] was 16.8% and the cell viability [4, 30] was 122%. For the same molecule, the cell viability [4, 31] was 117%, the cell viability [4, 32] was 127% and the cell viability [4, 33] was 135%. For the same molecule, the cell viability [4, 34] was 125%, the cell viability [4, 35] was 136% and the cell viability [4, 36] was 130%. The cell viability [4, 37] was 99.2%, the cell viability [4, 38] was 87.8% and the cell viability [4, 39] was 24.1%. It also gave a cell viability [4, 40] of 15.8%, a cell viability [5, 8] of 112% and a cell viability [5, 9] of 113%. For the same molecule, the cell viability [5, 10] was 108%, the cell viability [5, 11] was 116% and the cell viability [5, 12] was 106%. The cell viability [5, 13] was 112%, the cell viability [5, 14] was 41.4% and the cell viability [5, 15] was 12.8%. It also gave a cell viability [5, 16] of 10.7%, a cell viability [5, 17] of 8.54% and a cell viability [5, 18] of 7.05%. The cell viability [5, 19] was 106%, the cell viability [5, 20] was 121% and the cell viability [5, 21] was 118%. The cell viability [5, 22] was 120%, the cell viability [5, 23] was 118% and the cell viability [5, 24] was 113%. The cell viability [5, 25] was 102%, the cell viability [5, 26] was 72.6% and the cell viability [5, 27] was 25.9%. The cell viability [5, 28] was 10.3%, the cell viability [5, 29] was 9.62% and the cell viability [5, 30] was 109%. For the same molecule, the cell viability [5, 31] was 119%, the cell viability [5, 32] was 111% and the cell viability [5, 33] was 120%. It also gave a cell viability [5, 34] of 108%, a cell viability [5, 35] of 103% and a cell viability [5, 36] of 110%. For the same molecule, the cell viability [5, 37] was 73.5%, the cell viability [5, 38] was 33.1% and the cell viability [5, 39] was 16.6%. The cell viability [5, 40] was 16.1%, the cell viability [6, 8] was 118% and the cell viability [6, 9] was 109%. For the same molecule, the cell viability [6, 10] was 127%, the cell viability [6, 11] was 123% and the cell viability [6, 12] was 109%. The cell viability [6, 13] was 110%, the cell viability [6, 14] was 80.1% and the cell viability [6, 15] was 43.1%. The cell viability [6, 16] was 33.4%, the cell viability [6, 17] was 33.8% and the cell viability [6, 18] was 41.4%. For the same molecule, the cell viability [6, 19] was 118%, the cell viability [6, 20] was 101% and the cell viability [6, 21] was 117%. The cell viability [6, 22] was 121%, the cell viability [6, 23] was 112% and the cell viability [6, 24] was 105%. It also gave a cell viability [6, 25] of 108%, a cell viability [6, 26] of 96% and a cell viability [6, 27] of 52.8%. It also gave a cell viability [6, 28] of 22.6%, a cell viability [6, 29] of 25.3% and a cell viability [6, 30] of 105%. It also gave a cell viability [6, 31] of 106%, a cell viability [6, 32] of 113% and a cell viability [6, 33] of 117%. It also gave a cell viability [6, 34] of 107%, a cell viability [6, 35] of 109% and a cell viability [6, 36] of 116%. The cell viability [6, 37] was 91.6%, the cell viability [6, 38] was 57% and the cell viability [6, 39] was 28%. For the same molecule, the cell viability [6, 40] was 36.1%.
